Assay results from patent US11793790B2, “Compositions against Candida infections” (Katholieke Universiteit Leuven, priority 2017, dated 2023).

Columns and labels:
[1] = cited from earlier work
C. albicans biofilms = experiment: Biofilm checkerboard assay (CTB metabolic activity, BEC-2, FICI); conditions: for BEC-2 MCZ: 24 h
[2] = tested on: C. albicans biofilm cells; experiment: Kinetic PI (propidium iodide) fluorescence assay on biofilms; assay type: cell-based, Candida albicans
[3] = tested on: C. glabrata biofilms (strain BG2); experiment: Biofilm checkerboard assay with CFU determination (Example 9); assay type: cell-based, Candida glabrata; conditions: on its own or in combination with DB
Description: After 1 h of adhesion at 37° C., the medium was aspirated and biofilms were washed with 100 μL PBS to remove non-adherent cells, followed by the addition of 100 μL RPMI 1640 medium. Biofilms were allowed to grow for 24 h at 37° C. To determine possible potentiation of MCZ by DB, a checkerboard assay was used. […] After 38 h of incubation at 37° C., CFU determination was performed on treated biofilms. […] Serial dilutions (10^−2, 10^−3 and 10^−4) were plated on YPD agar plates, followed by an incubation period of 24 h at 37° C. and subsequent colony counting.

[4] = tested on: planktonic C. glabrata cultures (strain BG2); experiment: Checkerboard assay with determination of the MIC; assay type: cell-based, Candida glabrata
Description: A C. glabrata BG2 overnight culture, grown in YPD, was diluted to an optical density of 0.1 (approximately 10^6 cells/mL) in RPMI medium, preheated at 37° C. 90 μL of the cell suspension was added to the wells of a 96 well plate, containing 10 μL of a combination of MCZ and DB, two fold diluted across rows and columns respectively (DMSO background 2%). After both 24 h and 48 h of incubation at 37° C., absorbance was measured at 490 nm by a multimode reader (Synergy Mx multi-mode microplate reader, BioTek, USA).
Domiphen bromide (DB) is a potentiator of miconazole against C. glabrata biofilms. […] MIC values were determined using Graphpad Prism 6 (table 8).

[5] = single treatment at 50 μM, 5-10 h after treatment

Clc1ccc(COC(Cn2ccnc2)c2ccc(Cl)cc2Cl)c(Cl)c1 (racemic) [Miconazole, (RS)-1-[2-(2,4-dichlorofenyl)-2-[(2,4-dichlorofenyl)methoxy]ethyl] imidazole]
solubility in water [1]: insoluble in water | BEC-2 MCZ (C. albicans biofilms; 0 μM DB (MCZ alone)): 230 µM | BEC-2 MCZ (C. albicans biofilms; in combination with 1.56 μM DB): 150 µM | BEC-2 MCZ (C. albicans biofilms; in combination with 3.125 μM DB): 100 µM | BEC-2 MCZ (C. albicans biofilms; in combination with 6.25 μM DB): 55 µM | BEC-2 MCZ (C. albicans biofilms; in combination with 12.5 μM DB): 30 µM | BEC-2 MCZ (C. albicans biofilms; in combination with 25 μM DB): 1 µM | PI fluorescence ([2]; single treatment 150 μM, after 16 h of treatment): slight increase

CC[C@@H]([C@H](C)O)n1ncn(-c2ccc(N3CCN(c4ccc(OC[C@@H]5CO[C@@](Cn6cncn6)(c6ccc(F)cc6F)C5)cc4)CC3)cc2)c1=O [Posaconazole]
antibiofilm activity against C. glabrata biofilms [3]: no significant antibiofilm activity

CCCCCCCCCCCC[N+](C)(C)CCOc1ccccc1 [domiphen bromide, N,N-dimetyl-N-(2-phenoxyetyl)-, bromide]
solubility in water [1]: highly soluble in water | PI fluorescence [2, 5]: slight increase

Clc1ccc(COC(Cn2ccnc2)c2ccc(Cl)cc2Cl)c(Cl)c1 (stereo not drawn) [miconazole nitrate]
solubility in water [1]: insoluble in water

CC[N+](CC)(CC)CC.[Br-] [tetraethylammonium bromide]
FICI with Miconazole (C. albicans biofilms; quaternary ammonium compound combined with Miconazole): > 0.5

benzalkonium chloride
potentiation of MCZ against planktonic C. glabrata cultures [4]: could not potentiate MCZ | PI fluorescence [2, 5]: slight increase
